The target in this experiment is Rae1_31-368-Nup98_157-213 heterodimer (Rae1-Nup98 complex) (Homo sapiens, UniProt P52948+P78406). Description: biochemical. The class given is binding.
Rae1_31-368-Nup98_157-213 heterodimer (Rae1-Nup98 complex), sequence (P78406 31-368 limits assumed): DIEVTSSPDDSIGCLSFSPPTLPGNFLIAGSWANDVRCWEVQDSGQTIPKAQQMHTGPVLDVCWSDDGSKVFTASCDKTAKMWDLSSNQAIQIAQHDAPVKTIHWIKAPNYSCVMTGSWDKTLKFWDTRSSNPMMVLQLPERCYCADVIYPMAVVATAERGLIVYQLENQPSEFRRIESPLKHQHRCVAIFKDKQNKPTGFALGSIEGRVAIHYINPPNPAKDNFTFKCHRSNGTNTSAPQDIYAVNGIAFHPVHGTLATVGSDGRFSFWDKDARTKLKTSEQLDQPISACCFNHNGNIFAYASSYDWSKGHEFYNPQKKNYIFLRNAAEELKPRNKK
Rae1_31-368-Nup98_157-213 heterodimer (Rae1-Nup98 complex), sequence (P52948 157-213 partner limits assumed): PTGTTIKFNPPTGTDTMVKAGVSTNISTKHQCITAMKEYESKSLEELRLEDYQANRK

By Kd is commonly meant the equilibrium constant for the complex coming apart. As to `CC[C@H](C)[C@H](NC(=O)[C@H](CCC(=O)O)NC(=O)[C@H](CCSC)NC(=O)[C@@H]1CCCN1C(=O)[C@H](CCC(N)=O)NC(=O)[C@H](CCC(=O)O)NC(=O)[C@H](CCC(=O)O)NC(=O)[C@H](CC(=O)O)NC(=O)[C@H](CC(C)C)NC(=O)[C@H](CCC(N)=O)NC(=O)[C@H](CO)NC(=O)[C@@H](N)Cc1ccc(O)cc1)C(=O)N[C@@H](CC(=O)O)C(=O)N[C@@H](Cc1ccc(O)cc1)C(=O)N1CCC[C@H]1C(=O)O` [SARS-CoV-2 ORF6 C3 + YP], the Kd came out at 0.2 µM.

Source of the values: PMC9376891 (Nature Communications, 2022).
